Laboratory results: article PMC12264554, “Application of preclinical absorption, distribution, metabolism, elimination in vitro techniques for the characterization and compound library optimization of novel antibiotic gallium salophen” (Drug Metabolism and Disposition, 2025)

Legend:
[1] = S9 clearance assay; assay type: in vitro ADME; conditions: average ± SEM n = 3; for CLint scaled: S9 rat liver fraction, 2 μM, read-out: Predicted CLint (converted); for half-life at 2 µM: pH 7.4, S9 rat liver fraction
Experimental: Select library compounds were tested in triplicate at a concentration of 2 μM and incubated in 0.1 M potassium phosphate buffer containing 12 mM MgCl2 and 8 mM NADPH at pH 7.4 with 2.5 mg/mL of Sprague–Dawley S9 (Invitrogen). Incubations contained a final concentration of 2.5 mM UDP glucuronic acid, 0.10 mM adenosine 3’-phosphate 5’-phosphosulfate, 0.5 mM acetyl CoA, and 50 μg/mg protein alamethicin. All co-factors were from Sigma. Samples were incubated for 0, 3, 7, 12, 20, and 30 minutes. At the designated time point, the incubation reaction was stopped by adding 100 μL of ACN containing 1 μM of either GaSal-4 or GaSal-5 as the internal standard. […] A hundred microliter of supernatant was taken for LC-MS/MS analysis. 7-Ethoxycoumarin (Sigma) was used as a positive control in this experiment. Clearance was calculated according to eq. 3:(3) CLint=0.693/InVitroT1/2∗IncubationVolume/mgofS9∗165mgS9/gramofliver∗45gramsliver/kgofbodyweight
The average CLint ± SEM was determined for each compound for 3 replicates per time point.

[2] = RBC/PL partitioning equilibrium in whole blood; conditions: for ICP-MS calculated KRBC/PL / LC-MS/MS calculated KRBC/PL: sodium heparin whole blood, 6 selectivity lots; for KRBC/PL: K2EDTA whole blood
Experimental: The mixtures were digested at 80 °C for 4 hours and further diluted to a concentration of 6% nitric acid. Gallium (Ga^71) in whole blood, PL, and RBC samples were quantified using an Agilent 7700x ICP-MS instrument (Agilent Technologies). Metal levels were detected using an Octopole Reaction System in He mode. Other ICP-MS parameters include an radio frequency power of 1500 W, on octupole radio frequency of 190 V, an octapole bias of –18 V, a helium gas flow of 4.3 mL/min, and an argon flow of 0.99 L/min. Samples were loaded through a 7700X peristaltic (with a speed of 0.1 rps) and a MicroMist nebulizer. A standard calibration curve was used to derive metal concentrations. The calibration standards from 0–250 ppb were prepared in 6% nitric acid using atomic absorption standards (Sigma). Data analysis and extraction were performed using Agilent’s MassHunter software version 5.1, specifically version D.01.01.
All LC-MS/MS grade solvents were purchased from ThermoFisher. Ammonium bicarbonate was purchased from Sigma Aldrich. Analysis was performed on a Waters I-Class ultra-performance liquid chromatography system connected with a Waters Xevo TQ-XS mass spectrometer. Ten millimolar ammonium bicarbonate, pH 9.4 was used for mobile phase A, and 100% methanol was used for mobile phase B. The column flow rate was set at 0.400 mL/min. Chromatographic separation was performed with a BEH C18 (2.1 × 50 mm, 1.7 μm) column (Waters). […] The total run time was 4 minutes. The column temperature was set to 60 °C, and the autosampler temperature was set to 15 °C. Washing parameters were 800 μL of weak needle wash (acetonitrile [ACN]:Water/50:50) and 1000 μL of strong needle wash (methanol:ACN:2-propanol:formic acid/30:30:40:0.5) after every injection. Transitions used to monitor all drugs in the study are shown in Supplemental Table 1.
Whole blood (either potassium EDTA [K2EDTA] or sodium heparin) was preincubated at 37 °C for 30 minutes before spiking with the analyte. GaSal-5 was made at a stock concentration of 100 μg/mL in water and then spiked at a high concentration (1 μg/mL) and low concentration (100 ng/mL) to determine whether equilibrium was concentration dependent. Samples were then aliquoted and stored in a water bath at 37 °C for 1, 2, 3, 4, and 8 hours or harvested immediately. PL was harvested from samples by centrifuging at 3000 rpm at 4 °C for 10 minutes. PL was transferred to a new tube and considered the PL fraction, whereas the rest of the matrix was considered the RBC fraction. Samples were then either analyzed by LC-MS/MS or ICP-MS. […] For selectivity lot analysis, whole blood from 3 male and 3 female donors were incubated for 2 hours and then analyzed with LC-MS/MS and ICP-MS at a single concentration of 1 μg/mL. Data are presented as average ± SEM, n = 3 per sample, per concentration. Significance was determined by using a paired t test for ICP-MS and LC-MS/MS data (the same sample, different method) or a 2-tailed Student’s t test for different anticoagulants.

[3] = Microsomal clearance assay; assay type: in vitro ADME, rat
Experimental: Library compounds were tested in triplicate at a concentration of 2 μM and incubated in 0.1 M potassium phosphate buffer containing 12 mM MgCl2 and 8 mM NADPH at pH 7.4 with either 0.5 mg/mL of Sprague–Dawley liver microsomes (Invitrogen). Samples were incubated for 0, 3, 7, 12, 20, and 30 minutes. At the designated time point, the incubation reaction was stopped by adding 100 μL of ACN containing 1 μM of either GaSal-4 or GaSal-5 as the internal standards. […] 7-Ethoxycoumarin (Sigma) was used as a positive control in this experiment. Intrinsic clearance (CLint) was calculated using eq. 2:(2) CLint=0.693/InVitroT1/2∗IncubationVolume/mgofmicrosomes∗45mgmicrosomes/gramofliver∗45gramsliver/kgofbodyweight
The average CLint ± SEM was determined for each compound for 2 replicates per time point.

[4] = test system: CYP; test: 7-Ethoxycoumarin metabolism in microsomes in the presence of GaSal analogs (possible CYP inhibition); assay type: in vitro ADME, rat; conditions: co-incubation with 7-ethoxycoumarin
[5] = 0.1 μg/mL, pooled K2EDTA whole blood, 2 hours, LC-MS/MS (ICP-MS for Ga^3+)
[6] = 0.1 μg/mL, pooled sodium heparin whole blood, 2 hours, LC-MS/MS (ICP-MS for Ga^3+)
[7] = 1 μg/mL, pooled sodium heparin whole blood, 2 hours, LC-MS/MS (ICP-MS for Ga^3+)
[8] = 1 μg/mL, selectivity lots n = 6, LC-MS/MS
[9] = 1 μg/mL, selectivity lots n = 6, LC-MS/MS (also in Table 4)
[10] = 1 μg/mL, pooled K2EDTA whole blood, 2 hours, LC-MS/MS (ICP-MS for Ga^3+)

COCCOCCOc1ccc(C=Nc2ccccc2N=Cc2ccc(OCCOCCOC)cc2O)c(O)c1.[Ga+3] [GaSal-5]
CLint scaled [1]: 1.67 L/h/kg | half-life at 2 µM [1]: 2.88 ± 3.37 h | K2EDTA KRBC/PL [2, 5]: 0.63 ± 0.36 | Heparin KRBC/PL [2, 6]: 1.91 ± 0.57 | Heparin KRBC/PL [2, 7]: 1.34 ± 0.17 | K2EDTA KRBC/PL [2, 8]: 0.16 ± 0.03 | Heparin KRBC/PL [2, 9]: 0.56 ± 0.03 | ICP-MS calculated KRBC/PL ([2]; 1 μg/mL, 2 hours): 0.36 ± 0.03 | LC-MS/MS calculated KRBC/PL ([2]; 1 μg/mL, 2 hours): 0.56 ± 0.03 | KRBC/PL ([2]; 2 hours, ICP-MS, HQC (1 μg/mL)): 0.572 ± 0.008 | KRBC/PL ([2]; 2 hours, ICP-MS, LQC (100 ng/mL)): 0.632 ± 0.080 | KRBC/PL ([2]; 2 hours, LC-MS/MS, HQC (1 μg/mL)): 0.043 ± 0.017 | KRBC/PL ([2]; 2 hours, LC-MS/MS, LQC (100 ng/mL)): 0.070 ± 0.007

COCCOc1ccc(/C=N/c2ccccc2N=C(C)c2ccccc2O)c(O)c1.[Ga+3] [GaSal-14]
K2EDTA KRBC/PL [2, 5]: 0.69 ± 0.10 | Heparin KRBC/PL [2, 6]: 0.55 ± 0.07 | K2EDTA KRBC/PL [2, 10]: 1.65 ± 0.18 | Heparin KRBC/PL [2, 7]: 1.86 ± 0.36 | K2EDTA KRBC/PL [2, 8]: 0.08 ± 0.01 | Heparin KRBC/PL [2, 9]: 0.33 ± 0.04 | ICP-MS calculated KRBC/PL ([2]; 1 μg/mL, 2 hours): 0.34 ± 0.02 | LC-MS/MS calculated KRBC/PL ([2]; 1 μg/mL, 2 hours): 0.33 ± 0.04

O=C(O)CCOc1ccc(C=Nc2ccccc2N=Cc2ccc(OCCC(=O)O)cc2O)c(O)c1.[Ga+3] [GaSal-4]
CLint scaled [1]: 23.9 L/h/kg | half-life at 2 µM [1]: 0.2 ± 0.1 h | K2EDTA KRBC/PL [2, 5]: 2288 ± 94 | Heparin KRBC/PL [2, 6]: 3422 ± 435 | K2EDTA KRBC/PL [2, 10]: 9220 ± 484 | Heparin KRBC/PL [2, 7]: 8098 ± 1102

COCCOc1ccc(/C=N/c2ccccc2/N=C/c2ccc(OCCOC)cc2O)c(O)c1.[Ga+3] [GaSal-13]
K2EDTA KRBC/PL [2, 5]: 0.55 ± 0.35 | Heparin KRBC/PL [2, 6]: 0.47 ± 0.22 | K2EDTA KRBC/PL [2, 10]: 0.08 ± 0.04 | Heparin KRBC/PL [2, 7]: 0.59 ± 0.18 | ICP-MS calculated KRBC/PL ([2]; 1 μg/mL, 2 hours): 0.48 ± 0.04 | LC-MS/MS calculated KRBC/PL ([2]; 1 μg/mL, 2 hours): 0.42 ± 0.03

Oc1cc(OCCN2CCOCC2)ccc1C=Nc1ccccc1N=Cc1ccc(OCCN2CCOCC2)cc1O.[Ga+3] [GaSal-3]
decrease in peak area over time ([3]; rat liver microsomes, 30-minute period): < 10% | CLint scaled [1]: 1.81 L/h/kg | half-life at 2 µM [1]: 2.67 ± 1.21 h | K2EDTA KRBC/PL [2, 5]: 0.28 ± 0.08 | Heparin KRBC/PL [2, 6]: 1.08 ± 0.28 | K2EDTA KRBC/PL [2, 10]: 0.28 ± 0.04 | Heparin KRBC/PL [2, 7]: 1.03 ± 0.24

Oc1ccccc1/C=N/c1ccccc1/N=C/c1ccccc1O.[Ga+3] [GaSal, gallium salophen]
CLint scaled ([3]; 2 μM, 0.5 mg/mL rat liver microsomes, NADPH, 30 min, read-out: experimental CLint (microsomes)): 1.28 to 3.78 L/h/kg | CLint scaled [1]: 8.17 L/h/kg | half-life at 2 µM [1]: 0.59 ± 0.15 h | K2EDTA KRBC/PL [2, 5]: 0.22 ± 0.02 | Heparin KRBC/PL [2, 6]: 0.61 ± 0.42 | K2EDTA KRBC/PL [2, 10]: 0.26 ± 0.03 | Heparin KRBC/PL [2, 7]: 0.57 ± 0.19 | K2EDTA KRBC/PL [2, 8]: 0.58 ± 0.02 | Heparin KRBC/PL [2, 9]: 0.45 ± 0.03 | ICP-MS calculated KRBC/PL ([2]; 1 μg/mL, 2 hours): 0.89 ± 0.04 | LC-MS/MS calculated KRBC/PL ([2]; 1 μg/mL, 2 hours): 0.45 ± 0.03 | 7-ethoxycoumarin metabolism when co-incubated (possible CYP inhibition) [4]: CYP inhibition
